Experimental findings from patent publication US10765764B2, “Probes for imaging huntingtin protein” (CHDI Foundation, Inc., priority 2015, dated 2020) are described below.

Molecules are shown by their SMILES.

T1 sequence (P42858 with tags, fused parts or gaps with the stated changes, form open): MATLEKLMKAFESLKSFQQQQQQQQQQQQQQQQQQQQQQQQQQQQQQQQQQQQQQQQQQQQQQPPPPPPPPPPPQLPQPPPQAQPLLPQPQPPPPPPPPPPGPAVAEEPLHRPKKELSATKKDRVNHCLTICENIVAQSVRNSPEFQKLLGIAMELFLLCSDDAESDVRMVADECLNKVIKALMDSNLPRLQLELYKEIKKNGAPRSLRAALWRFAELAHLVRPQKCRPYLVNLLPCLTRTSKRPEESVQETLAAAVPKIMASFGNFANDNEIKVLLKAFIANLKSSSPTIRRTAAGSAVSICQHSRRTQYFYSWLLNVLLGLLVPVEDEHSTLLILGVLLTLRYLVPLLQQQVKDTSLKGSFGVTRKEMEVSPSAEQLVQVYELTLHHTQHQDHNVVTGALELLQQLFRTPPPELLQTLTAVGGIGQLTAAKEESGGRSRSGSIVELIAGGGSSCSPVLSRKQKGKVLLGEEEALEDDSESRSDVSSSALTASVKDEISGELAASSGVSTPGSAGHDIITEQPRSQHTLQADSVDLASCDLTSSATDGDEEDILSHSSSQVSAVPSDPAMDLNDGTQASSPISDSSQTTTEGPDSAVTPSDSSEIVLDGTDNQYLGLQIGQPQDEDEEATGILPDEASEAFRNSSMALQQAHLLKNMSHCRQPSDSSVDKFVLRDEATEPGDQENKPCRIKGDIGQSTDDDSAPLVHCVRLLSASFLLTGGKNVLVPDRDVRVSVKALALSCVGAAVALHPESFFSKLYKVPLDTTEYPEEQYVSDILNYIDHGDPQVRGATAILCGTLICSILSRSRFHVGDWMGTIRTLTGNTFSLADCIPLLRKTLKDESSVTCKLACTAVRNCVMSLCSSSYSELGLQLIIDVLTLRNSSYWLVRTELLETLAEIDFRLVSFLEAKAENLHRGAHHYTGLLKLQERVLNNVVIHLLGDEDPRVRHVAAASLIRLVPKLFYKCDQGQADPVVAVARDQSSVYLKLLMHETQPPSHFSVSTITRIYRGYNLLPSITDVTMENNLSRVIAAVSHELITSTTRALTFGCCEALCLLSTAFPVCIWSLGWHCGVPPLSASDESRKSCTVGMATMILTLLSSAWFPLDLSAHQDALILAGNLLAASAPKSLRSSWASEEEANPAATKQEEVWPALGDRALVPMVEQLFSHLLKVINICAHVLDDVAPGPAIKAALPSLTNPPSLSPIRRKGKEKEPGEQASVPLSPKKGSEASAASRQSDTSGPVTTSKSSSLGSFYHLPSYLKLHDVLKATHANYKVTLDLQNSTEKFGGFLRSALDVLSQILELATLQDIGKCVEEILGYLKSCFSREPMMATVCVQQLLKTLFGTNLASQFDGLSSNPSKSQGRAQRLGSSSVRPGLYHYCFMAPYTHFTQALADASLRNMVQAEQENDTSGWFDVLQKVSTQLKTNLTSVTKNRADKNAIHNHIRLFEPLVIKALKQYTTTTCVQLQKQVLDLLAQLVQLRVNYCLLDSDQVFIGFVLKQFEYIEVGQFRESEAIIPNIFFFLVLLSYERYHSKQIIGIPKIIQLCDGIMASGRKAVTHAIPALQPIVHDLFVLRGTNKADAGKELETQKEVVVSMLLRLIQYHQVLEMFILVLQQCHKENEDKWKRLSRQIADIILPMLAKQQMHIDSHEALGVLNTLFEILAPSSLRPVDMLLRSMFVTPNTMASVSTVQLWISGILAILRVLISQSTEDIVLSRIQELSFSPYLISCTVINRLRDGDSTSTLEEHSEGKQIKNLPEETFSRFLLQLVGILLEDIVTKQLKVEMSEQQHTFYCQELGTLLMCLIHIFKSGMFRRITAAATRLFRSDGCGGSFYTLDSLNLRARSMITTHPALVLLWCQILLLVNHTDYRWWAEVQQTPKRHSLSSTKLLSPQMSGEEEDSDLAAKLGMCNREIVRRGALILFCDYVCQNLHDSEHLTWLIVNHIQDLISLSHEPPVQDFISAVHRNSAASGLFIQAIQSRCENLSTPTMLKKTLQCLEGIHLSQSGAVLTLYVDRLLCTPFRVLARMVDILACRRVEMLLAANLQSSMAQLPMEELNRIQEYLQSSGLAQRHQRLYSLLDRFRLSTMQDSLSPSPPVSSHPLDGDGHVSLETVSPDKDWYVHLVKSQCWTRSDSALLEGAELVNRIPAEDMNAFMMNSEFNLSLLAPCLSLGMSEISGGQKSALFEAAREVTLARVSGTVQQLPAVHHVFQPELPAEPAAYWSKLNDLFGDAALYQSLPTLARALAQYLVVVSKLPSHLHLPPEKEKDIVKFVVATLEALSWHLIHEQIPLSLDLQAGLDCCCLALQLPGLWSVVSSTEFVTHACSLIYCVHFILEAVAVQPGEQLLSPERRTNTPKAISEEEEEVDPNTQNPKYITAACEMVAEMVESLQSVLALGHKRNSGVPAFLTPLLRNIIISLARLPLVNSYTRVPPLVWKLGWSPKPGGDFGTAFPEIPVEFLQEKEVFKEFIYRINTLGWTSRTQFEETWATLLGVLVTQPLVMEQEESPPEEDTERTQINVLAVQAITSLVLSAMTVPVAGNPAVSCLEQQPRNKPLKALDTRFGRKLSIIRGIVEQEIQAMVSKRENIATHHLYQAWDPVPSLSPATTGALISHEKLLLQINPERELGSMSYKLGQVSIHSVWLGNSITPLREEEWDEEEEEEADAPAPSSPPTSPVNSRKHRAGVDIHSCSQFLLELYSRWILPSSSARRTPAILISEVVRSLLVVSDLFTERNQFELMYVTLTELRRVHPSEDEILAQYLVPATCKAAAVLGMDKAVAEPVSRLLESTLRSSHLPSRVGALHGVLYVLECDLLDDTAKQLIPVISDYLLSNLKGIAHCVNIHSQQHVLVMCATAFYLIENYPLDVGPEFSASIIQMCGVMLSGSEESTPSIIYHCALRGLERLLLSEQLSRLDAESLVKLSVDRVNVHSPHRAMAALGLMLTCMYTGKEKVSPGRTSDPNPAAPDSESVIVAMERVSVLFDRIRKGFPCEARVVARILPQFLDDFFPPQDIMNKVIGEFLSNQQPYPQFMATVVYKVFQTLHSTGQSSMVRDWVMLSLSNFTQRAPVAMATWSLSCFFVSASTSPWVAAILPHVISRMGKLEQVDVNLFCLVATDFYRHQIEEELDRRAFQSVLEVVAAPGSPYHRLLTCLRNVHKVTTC

This assay has as its target T1, Q46 protein aggregates (Homo sapiens, UniProt P42858).
T1 construct: fused on or other part: An N-terminal GST tag, cleaved off with thrombin before the assay to trigger aggregation
Kind of assay: Q46 Radioligand Binding Assay (RBA), displacement of [^3H3]MK-3328. The note with it: 10 nM [^3H3]MK-3328, 5 μM Q46 protein aggregates. As for the experimental part: For radioligand binding assays (RBA) GST-Q46 protein was generated based on a previous publication (Scherzinger et al. Cell, Vol. 90, 549-558, Aug. 8, 1997). For experiments 33 μM GST-Q46 was incubated with 150 μg/mL thrombin in assay buffer (150 mM NaCl, 50 mM Tris pH 8.0) and 2 mM CaCl2 for 16 hours at 37° C. Aggregated Q46 was pelleted by centrifugation for 5 minutes at 13,000 rpm in a bench top centrifuge and re-dissolved in the same volume of assay buffer. Test compounds were prepared by titration in DMSO at 11 concentrations from 33 μM to 1 nM. For the RBA, Q46 protein aggregates and test compounds were pre-incubated in assay buffer for 20 minutes at room temperature, in 140 μL/well in a 96-well plate (pp, round bottom). Then, ligand was added in 10 μL/well and incubated for 60 minutes at 37° C. Final assay concentrations were 1 μM to 30 pM test compound, 5 μM Q46 protein (equivalent monomer concentration) and 10 nM ligand [^3H3]MK-3328 (Harrision et al., ACS Med. Chem. Lett., 2 (2011), pp 498-502). Samples were transferred onto GF/B filter plates and washed 2× with 200 μL PBS using a Filtermate Harvester. After drying filter plates for 1 hour at 37° C., the back of the plates was sealed with foil and 30 μl/well scintillation fluid (Packard MicroScint 40) was added, incubated for incubated for 15 minutes in the dark and counted in a TopCount reader. For analysis, replicate data from independent assay plates were normalized towards 0% and 100% inhibition using control wells of vehicle (0% inhibition) and 3 μM unlabelled MK-3328 (100% inhibition). IC50 values were determined with a sigmoidal inhibition model with four variables (top, bottom, slope, IC50) in a global fit using the normalized replicate data.
In the case of `COc1ccc2c(c1)sc1nc(C(=O)Nc3ccc[n+]([O-])c3)cn12` [3-{10-methoxy-7-thia-2,5-diazatricyclo[6.4.0.0^2,6]dodeca-1(12),3,5,8,10-pentaene-4-amido}pyridin-1-ium-1-olate], the half-maximal inhibitory concentration (IC50) – broadly, the concentration needed to halve the response being measured – was in the range of 100 to 500 nM. With `COc1cncc(NC(=O)c2ccn3c(n2)nc2ccc(OC)cc23)c1` [4-methoxy-N-(5-methoxypyridin-3-yl)-1,8,10-triazatricyclo[7.4.0.0^2,7]trideca-2(7),3,5,8,10,12-hexaene-11-carboxamide], the half-inhibitory concentration (IC50) was less than 100 nM. As to `COc1ccc2c(c1)nc1nc(C(=O)N3Cc4cnn(C)c4C3)ccn12` [5-methoxy-11-{1-methyl-1H,4H,5H,6H-pyrrolo[3,4-c]pyrazole-5-carbonyl}-1,8,10-triazatricyclo[7.4.0.0^2,7]trideca-2(7),3,5,8,10,12-hexaene], the 50% inhibitory concentration (IC50) was less than 100 nM. In the case of `COc1ccc2c(c1)nc1nc(C(=O)Nc3ccc(=O)n(C)n3)ccn12` [5-methoxy-N-(1-methyl-6-oxo-1,6-dihydropyridazin-3-yl)-1,8,10-triazatricyclo[7.4.0.0^2,7]trideca-2(7),3,5,8,10,12-hexaene-11-carboxamide], the half-inhibitory concentration (IC50) was less than 100 nM. Take `COc1cncc(NC(=O)c2ccn3c(n2)nc2cc(OC)ccc23)c1` [5-methoxy-N-(5-methoxypyridin-3-yl)-1,8,10-triazatricyclo[7.4.0.0^2,7]trideca-2(7),3,5,8,10,12-hexaene-11-carboxamide]: the IC50 is less than 100 nM. Take `COc1ccc2c(c1)nc1nc(C(=O)Nc3ccc(OC)nc3)ccn12` [5-methoxy-N-(6-methoxypyridin-3-yl)-1,8,10-triazatricyclo[7.4.0.0^2,7]trideca-2(7),3,5,8,10,12-hexaene-11-carboxamide]: the IC50 was less than 100 nM. The compound `COc1ccc2c(c1)nc1nc(C(=O)Nc3cccnc3)ccn12` [5-methoxy-N-(pyridin-3-yl)-1,8,10-triazatricyclo[7.4.0.0^2,7]trideca-2(7),3,5,8,10,12-hexaene-11-carboxamide] showed an IC50 of less than 100 nM. `O=C(Nc1cccnc1)c1cn2c(n1)sc1cc(OCCF)ccc12` [10-(2-fluoroethoxy)-N-(pyridin-3-yl)-7-thia-2,5-diazatricyclo[6.4.0.0^2,6]dodeca-1(8),3,5,9,11-pentaene-4-carboxamide] registered an IC50 of less than 100 nM. For `COc1ccc(COc2ccc3c(c2)sc2nc(C(=O)Nc4cncc(OC)c4)cn23)nc1` [10-[(5-methoxypyridin-2-yl)methoxy]-N-(5-methoxypyridin-3-yl)-7-thia-2,5-diazatricyclo[6.4.0.0^2,6]dodeca-1(12),3,5,8,10-pentaene-4-carboxamide] the value was less than 100 nM. `COc1cncc(NC(=O)c2cn3c(n2)sc2cc(CN(C)C)ccc23)c1` [10-[(dimethylamino)methyl]-N-(5-methoxypyridin-3-yl)-7-thia-2,5-diazatricyclo[6.4.0.0^2,6]dodeca-1(12),3,5,8,10-pentaene-4-carboxamide] came in with a half-inhibitory concentration (IC50) of 100 to 500 nM. On to `COc1ccc(NC(=O)c2cn3c(n2)sc2cc(O)ccc23)cn1` [10-hydroxy-N-(6-methoxypyridin-3-yl)-7-thia-2,5-diazatricyclo[6.4.0.0^2,6]dodeca-1(12),3,5,8,10-pentaene-4-carboxamide], for which the IC50 is less than 100 nM. For `O=C(Nc1cccnc1)c1cn2c(n1)sc1cc(O)ccc12` [10-hydroxy-N-(pyridin-3-yl)-7-thia-2,5-diazatricyclo[6.4.0.0^2,6]dodeca-1(12),3,5,8,10-pentaene-4-carboxamide] the value was less than 100 nM; for `COc1ccc2c(c1)sc1nc(C(=O)N3Cc4cnn(C)c4C3)cn12` [10-methoxy-4-{1-methyl-1H,4H,5H,6H-pyrrolo[3,4-c]pyrazole-5-carbonyl}-7-thia-2,5-diazatricyclo[6.4.0.0^2,6]dodeca-1(12),3,5,8,10-pentaene], less than 100 nM. `COc1ccc2c(c1)sc1nc(C(=O)N3CCc4ccncc43)cn12` [10-methoxy-4-{1H,2H,3H-pyrrolo[2,3-c]pyridine-1-carbonyl}-7-thia-2,5-diazatricyclo[6.4.0.0^2,6]dodeca-1(12),3,5,8,10-pentaene] returned an IC50 greater than 500 nM. The compound `COc1ccc2c(c1)sc1nc(C(=O)Nc3cnn(C)c3)cn12` [10-methoxy-N-(1-methyl-1H-pyrazol-4-yl)-7-thia-2,5-diazatricyclo[6.4.0.0^2,6]dodeca-1(12),3,5,8,10-pentaene-4-carboxamide] registered an IC50 of 100 to 500 nM. As to `COc1ccc2c(c1)nc1sc(C(=O)Nc3ccc(=O)n(C)n3)cn12` [10-methoxy-N-(1-methyl-6-oxo-1,6-dihydropyridazin-3-yl)-5-thia-2,7-diazatricyclo[6.4.0.0^2,6]dodeca-1(12),3,6,8,10-pentaene-4-carboxamide], the half-maximal inhibitory concentration (IC50) is less than 100 nM. As for `COCCNC(=O)c1cn2c(n1)sc1cc(OC)ccc12` [10-methoxy-N-(2-methoxyethyl)-7-thia-2,5-diazatricyclo[6.4.0.0^2,6]dodeca-1(12),3,5,8,10-pentaene-4-carboxamide], the concentration for half-maximal inhibition (IC50) lay within 100 to 500 nM. The compound `COc1ccc2c(c1)nc1sc(C(=O)Nc3cnc(C)nc3)cn12` [10-methoxy-N-(2-methylpyrimidin-5-yl)-5-thia-2,7-diazatricyclo[6.4.0.0^2,6]dodeca-1(8),3,6,9,11-pentaene-4-carboxamide] gave an IC50 of less than 100 nM.

In the case of `COc1ccc2c(c1)sc1nc(C(=O)Nc3cnc(C)nc3)cn12` [10-methoxy-N-(2-methylpyrimidin-5-yl)-7-thia-2,5-diazatricyclo[6.4.0.0^2,6]dodeca-1(12),3,5,8,10-pentaene-4-carboxamide], the IC50 was less than 100 nM. For `COc1ccc(NC(=O)c2cn3c(n2)sc2cc(OC)ccc23)nc1` [10-methoxy-N-(5-methoxypyridin-2-yl)-7-thia-2,5-diazatricyclo[6.4.0.0^2,6]dodeca-1(12),3,5,8,10-pentaene-4-carboxamide] the value was less than 100 nM; for `COc1cncc(NC(=O)c2cn3c(nc4cc(OC)ccc43)s2)c1` [10-methoxy-N-(5-methoxypyridin-3-yl)-5-thia-2,7-diazatricyclo[6.4.0.0^2,6]dodeca-1(12),3,6,8,10-pentaene-4-carboxamide], less than 100 nM; for `COc1cncc(NC(=O)c2cn3c(n2)sc2nc(OC)ccc23)c1` [10-methoxy-N-(5-methoxypyridin-3-yl)-7-thia-2,5,9-triazatricyclo[6.4.0.0^2,6]dodeca-1(12),3,5,8,10-pentaene-4-carboxamide], less than 100 nM. Regarding `COc1cncc(NC(=O)c2cn3c(n2)sc2cc(OC)ccc23)c1` [10-methoxy-N-(5-methoxypyridin-3-yl)-7-thia-2,5-diazatricyclo[6.4.0.0^2,6]dodeca-1(12),3,5,8,10-pentaene-4-carboxamide], the IC50 was less than 100 nM.

`COc1ccc2c(c1)sc1nc(C(=O)Nc3ccc(OC)nc3)cn12` [10-methoxy-N-(6-methoxypyridin-3-yl)-7-thia-2,5-diazatricyclo[6.4.0.0^2,6]dodeca-1(12),3,5,8,10-pentaene-4-carboxamide]: the IC50 is less than 100 nM.

`COc1ccc2c(c1)sc1nc(C(=O)Nc3ccc(C)nc3)cn12` [10-methoxy-N-(6-methylpyridin-3-yl)-7-thia-2,5-diazatricyclo[6.4.0.0^2,6]dodeca-1(12),3,5,8,10-pentaene-4-carboxamide] yielded an IC50 of less than 100 nM.
